Measured values published in patent publication US10988477B2 (Merck Patent GmbH, priority 2018, dated 2021).

Molecular target: GCN2 kinase (Homo sapiens, UniProt Q9P2K8)
Assay: GCN2 enzyme inhibition assay (Transcreener ADP2 fluorescence polarization)
Type: biochemical
Conditions: Enzyme activity for compounds of Formula IV; Ki(app), 280 μM ATP, 25° C.
Outline: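 Kinase activity is followed as ADP formation, measured by fluorescence polarization, using 4 nM enzyme with 280 μM ATP and 200 μM (RS)7 peptide at pH 7.5 and 25 °C for 1 h. Values come from a non-linear tight-binding fit.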

GCN2 kinase, sequence (Q9P2K8 whole entry): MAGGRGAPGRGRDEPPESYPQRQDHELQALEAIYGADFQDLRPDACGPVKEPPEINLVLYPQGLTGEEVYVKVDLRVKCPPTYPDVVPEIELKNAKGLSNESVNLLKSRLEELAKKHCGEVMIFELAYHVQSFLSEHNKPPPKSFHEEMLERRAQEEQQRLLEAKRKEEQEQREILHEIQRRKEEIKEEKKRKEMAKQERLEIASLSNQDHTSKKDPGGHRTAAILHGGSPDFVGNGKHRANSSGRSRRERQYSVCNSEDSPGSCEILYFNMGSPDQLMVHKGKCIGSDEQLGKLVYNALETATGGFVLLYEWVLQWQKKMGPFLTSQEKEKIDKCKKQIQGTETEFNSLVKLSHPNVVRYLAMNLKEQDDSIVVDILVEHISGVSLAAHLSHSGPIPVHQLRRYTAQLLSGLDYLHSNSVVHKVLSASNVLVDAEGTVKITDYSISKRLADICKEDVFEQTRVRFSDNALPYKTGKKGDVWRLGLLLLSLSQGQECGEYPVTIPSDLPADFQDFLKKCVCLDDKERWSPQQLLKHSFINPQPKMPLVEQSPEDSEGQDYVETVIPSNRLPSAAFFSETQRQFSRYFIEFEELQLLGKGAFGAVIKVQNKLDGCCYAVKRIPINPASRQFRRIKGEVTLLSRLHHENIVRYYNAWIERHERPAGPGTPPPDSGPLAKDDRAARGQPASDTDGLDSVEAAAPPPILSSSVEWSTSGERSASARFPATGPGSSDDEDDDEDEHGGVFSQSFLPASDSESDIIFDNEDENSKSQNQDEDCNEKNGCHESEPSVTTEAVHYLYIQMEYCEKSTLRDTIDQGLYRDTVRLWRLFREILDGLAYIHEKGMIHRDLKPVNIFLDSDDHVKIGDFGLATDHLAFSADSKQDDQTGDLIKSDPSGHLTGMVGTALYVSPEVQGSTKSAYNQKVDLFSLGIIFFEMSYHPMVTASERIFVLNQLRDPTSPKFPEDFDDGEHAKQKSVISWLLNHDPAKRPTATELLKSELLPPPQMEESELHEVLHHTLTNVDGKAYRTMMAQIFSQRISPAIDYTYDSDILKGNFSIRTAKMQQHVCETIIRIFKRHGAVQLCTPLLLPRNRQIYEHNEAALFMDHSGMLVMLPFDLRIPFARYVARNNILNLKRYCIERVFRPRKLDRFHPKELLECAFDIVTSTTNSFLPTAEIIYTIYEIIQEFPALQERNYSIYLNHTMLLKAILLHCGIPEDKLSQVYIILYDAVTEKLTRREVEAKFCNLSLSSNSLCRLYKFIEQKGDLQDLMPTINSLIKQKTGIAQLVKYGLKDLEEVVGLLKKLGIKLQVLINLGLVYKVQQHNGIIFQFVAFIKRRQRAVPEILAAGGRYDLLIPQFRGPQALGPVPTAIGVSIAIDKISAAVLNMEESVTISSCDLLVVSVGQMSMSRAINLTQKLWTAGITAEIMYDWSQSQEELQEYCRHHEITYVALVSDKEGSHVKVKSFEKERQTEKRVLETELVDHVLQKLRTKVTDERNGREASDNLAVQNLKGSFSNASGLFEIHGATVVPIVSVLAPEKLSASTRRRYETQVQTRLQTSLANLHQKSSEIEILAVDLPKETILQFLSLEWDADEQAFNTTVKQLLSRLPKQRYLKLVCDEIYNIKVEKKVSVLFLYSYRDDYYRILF

Row | Ki [nM] | SMILES
1 | 100 to 1000 | FC(F)(F)c1cn2c(-c3nccc(N4CCCC(c5n[nH]c(C6CCCCC6)n5)C4)n3)cnc2cn1 (centres unmarked) [IV-659, 3-(4-(3-(5-Cyclohexyl-1H-1,2,4-triazol-3-yl)piperidin-1-yl)pyrimidin-2-yl)-6-(trifluoromethyl)imidazo[1,2-a]pyrazine]
2 | 100 to 1000 | O=c1nc(C2CCCN(c3ccnc(-c4cnc5cnc(C(F)(F)F)cn45)n3)C2)[nH][nH]1 (centres unmarked) [IV-660, 5-(1-(2-(6-(Trifluoromethyl)imidazo[1,2-a]pyrazin-3-yl)pyrimidin-4-yl)piperidin-3-yl)-1,2-dihydro-3H-1,2,4-triazol-3-one]
3 | 100 to 1000 | Cc1nc(C2CN(c3ccnc(-c4cnc5cnc(C(F)(F)F)cn45)n3)CCO2)n[nH]1 (centres unmarked) [IV-661, 2-(5-Methyl-1H-1,2,4-triazol-3-yl)-4-(2-(6-(trifluoromethyl)imidazo[1,2-a]pyrazin-3-yl)pyrimidin-4-yl)morpholine]
4 | 100 to 1000 | Cn1nc(C2CCCN(c3ccnc(-c4cnc5cnc(C(F)(F)F)cn45)n3)C2)cc1CCO (centres unmarked) [IV-662, 2-(1-Methyl-3-(1-(2-(6-(trifluoromethyl)imidazo[1,2-a]pyrazin-3-yl)pyrimidin-4-yl)piperidin-3-yl)-1H-pyrazol-5-yl)ethan-1-ol]
5 | 100 to 1000 | O=C1CC(C2CCCN(c3ccnc(-c4cnc5cnc(C(F)(F)F)cn45)n3)C2)CN1 (centres unmarked) [IV-663, 4-(1-(2-(6-(Trifluoromethyl)imidazo[1,2-a]pyrazin-3-yl)pyrimidin-4-yl)piperidin-3-yl)pyrrolidin-2-one]
6 | 100 to 1000 | FC(F)(F)c1cn2c(-c3nccc(N4CCCC(n5ccc(C(F)(F)F)n5)C4)n3)cnc2cn1 (centres unmarked) [IV-664, 6-(Trifluoromethyl)-3-(4-(3-(3-(trifluoromethyl)-1H-pyrazol-1-yl)piperidin-1-yl)pyrimidin-2-yl)imidazo[1,2-a]pyrazine]

The remaining lines, values behind:

Row | SMILES | Ki [nM]
7 | FC(F)(F)c1cn2c(-c3nccc(N4CCC(c5cccnc5)C4)n3)cnc2cn1 (centres unmarked) [IV-646, 3-(4-(3-(Pyridin-3-yl)pyrrolidin-1-yl)pyrimidin-2-yl)-6-(trifluoromethyl)imidazo[1,2-a]pyrazine] | 10 to 100
8 | Cn1nc(C2CCN(c3ccnc(-c4cnc5cnc(C(F)(F)F)cn45)n3)C2)cc1O (centres unmarked) [IV-647, 1-Methyl-3-(1-(2-(6-(trifluoromethyl)imidazo[1,2-a]pyrazin-3-yl)pyrimidin-4-yl)pyrrolidin-3-yl)-1H-pyrazol-5-ol] | 100 to 1000
9 | FC(F)(F)c1cn2c(-c3nccc(N4CCCC(c5cc(C(F)(F)F)[nH]n5)C4)n3)cnc2cn1 (centres unmarked) [IV-653, 6-(Trifluoromethyl)-3-(4-(3-(5-(trifluoromethyl)-1H-pyrazol-3-yl)piperidin-1-yl)pyrimidin-2-yl)imidazo[1,2-a]pyrazine] | 100 to 1000
10 | Cn1cc(C(F)(F)F)nc1C1CCCN(c2ccnc(-c3cnc4cnc(C(F)(F)F)cn34)n2)C1 (centres unmarked) [IV-654, 3-(4-(3-(1-Methyl-4-(trifluoromethyl)-1H-imidazol-2-yl)piperidin-1-yl)pyrimidin-2-yl)-6-(trifluoromethyl)imidazo[1,2-a]pyrazine] | 100 to 1000
11 | Cn1nccc1C1CCCN(c2ccnc(-c3cnc4cnc(C(F)(F)F)cn34)n2)C1 (centres unmarked) [IV-655, 3-(4-(3-(1-Methyl-1H-pyrazol-5-yl)piperidin-1-yl)pyrimidin-2-yl)-6-(trifluoromethyl)imidazo[1,2-a]pyrazine] | 100 to 1000
12 | FC(F)(F)c1cn2c(-c3nccc(N4CCCC(c5nnco5)C4)n3)cnc2cn1 (centres unmarked) [IV-656, 2-(1-(2-(6-(Trifluoromethyl)imidazo[1,2-a]pyrazin-3-yl)pyrimidin-4-yl)piperidin-3-yl)-1,3,4-oxadiazole] | 100 to 1000
13 | Cc1c[nH]nc1C1CN(c2ccnc(-c3cnc4cnc(C(F)(F)F)cn34)n2)CCO1 (centres unmarked) [IV-657, 2-(4-Methyl-1H-pyrazol-3-yl)-4-(2-(6-(trifluoromethyl)imidazo[1,2-a]pyrazin-3-yl)pyrimidin-4-yl)morpholine] | 100 to 1000
14 | O=S1(=O)CCCN1C1CCCN(c2ccnc(-c3cnc4cnc(C(F)(F)F)cn34)n2)C1 (centres unmarked) [IV-658, 2-(1-(2-(6-(Trifluoromethyl)imidazo[1,2-a]pyrazin-3-yl)pyrimidin-4-yl)piperidin-3-yl)isothiazolidine 1,1-dioxide] | 100 to 1000
